Laboratory results: PMC9813914, “Structural Basis for a Cork-Up Mechanism of the Intra-Molecular Mesaconyl-CoA Transferase” (Biochemistry, 2022)

Biological target: T1, Mct (mesaconyl-CoA transferase; mesaconyl-C1:C4-CoA CoA transferase) (Chloroflexus aurantiacus, UniProt A9WC36)
T1 construct: intertwined homodimer
T1 sequence (A9WC36 1-409): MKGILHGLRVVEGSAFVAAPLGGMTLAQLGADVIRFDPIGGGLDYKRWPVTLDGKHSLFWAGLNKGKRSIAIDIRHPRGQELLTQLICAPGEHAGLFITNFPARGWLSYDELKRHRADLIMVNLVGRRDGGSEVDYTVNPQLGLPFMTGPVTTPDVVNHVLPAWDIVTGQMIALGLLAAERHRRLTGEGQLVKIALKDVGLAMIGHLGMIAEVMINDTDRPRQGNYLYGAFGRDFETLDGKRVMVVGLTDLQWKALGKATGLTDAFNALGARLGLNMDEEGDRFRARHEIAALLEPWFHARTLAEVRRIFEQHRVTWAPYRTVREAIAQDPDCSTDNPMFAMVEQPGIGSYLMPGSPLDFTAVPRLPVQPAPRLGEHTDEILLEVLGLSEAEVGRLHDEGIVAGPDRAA
Assay: HPLC-MS of succinyl-CoA formation
Type: biochemical
Conditions: alternative CoA acceptor (side activity); co-substrate 1 mM mesaconyl-C4-CoA; 200 mM HEPES/KOH pH 8.0, 55 °C, 6 μM Mct; read-out: apparent KM

Km: > 25 mM
SMILES: O=C(O)CCC(=O)O [succinate]
